Numbers after ± are expanded uncertainties.
Tests used:
[1] = Liquid; for mass density: 303.15 K, 101.33 kPa, Pycnometric method; for Normal boiling temperature: Ebulliometric method (Recirculating still)
[2] = excess molar enthalpy (molar enthalpy of mixing); xn = mol fraction of the nth substance listed; details: 298.15 K, 101.3 kPa, Liquid, Calvet calorimetry

For `ClC=C(Cl)Cl` [trichloroethene], which mass density [1] is on record?
Its mass density is 1451.42 ± 1.4 kg/m3.

And the Normal boiling temperature [1]?
Its Normal boiling temperature is 87.10 ± 0.2 °C.

Which results are given for `ClC(Cl)C(Cl)Cl` [1,1,2,2-tetrachloroethane]?
mass density [1]: 1578.59 ± 1.5 kg/m3; Normal boiling temperature [1]: 145.20 ± 0.2 °C

Which results are given for `ClC(Cl)=C(Cl)Cl` [tetrachloroethene] + C[S+](C)[O-]?
excess molar enthalpy ([2]; x1 = 0.0544): 0.0285 ± 0.000669 kcal/mol; excess molar enthalpy ([2]; x1 = 0.1116): 0.0584 ± 0.00131 kcal/mol; excess molar enthalpy ([2]; x1 = 0.171): 0.0912 ± 0.00201 kcal/mol; excess molar enthalpy ([2]; x1 = 0.2237): 0.117 ± 0.00263 kcal/mol; excess molar enthalpy ([2]; x1 = 0.2735): 0.141 ± 0.00311 kcal/mol; excess molar enthalpy ([2]; x1 = 0.3306): 0.155 ± 0.00335 kcal/mol; excess molar enthalpy ([2]; x1 = 0.385): 0.157 ± 0.00335 kcal/mol; excess molar enthalpy ([2]; x1 = 0.477): 0.139 ± 0.00311 kcal/mol; excess molar enthalpy ([2]; x1 = 0.5162): 0.123 ± 0.00263 kcal/mol; excess molar enthalpy ([2]; x1 = 0.5695): 0.105 ± 0.00227 kcal/mol; excess molar enthalpy ([2]; x1 = 0.6333): 0.0866 ± 0.00189 kcal/mol; excess molar enthalpy ([2]; x1 = 0.701): 0.0645 ± 0.00143 kcal/mol; excess molar enthalpy ([2]; x1 = 0.7632): 0.0522 ± 0.00117 kcal/mol; excess molar enthalpy ([2]; x1 = 0.8252): 0.0488 ± 0.0011 kcal/mol; excess molar enthalpy ([2]; x1 = 0.8872): 0.0456 ± 0.00103 kcal/mol; excess molar enthalpy ([2]; x1 = 0.9519): 0.0314 ± 0.000741 kcal/mol

For `ClC=C(Cl)Cl` [trichloroethene] + C[S+](C)[O-], which excess molar enthalpy ([2]; x1 = 0.0673) is on record?
Its excess molar enthalpy is -0.0229 ± 0.000574 kcal/mol.

And the excess molar enthalpy ([2]; x1 = 0.1345)?
The excess molar enthalpy was -0.0579 ± 0.00129 kcal/mol.

And the excess molar enthalpy ([2]; x1 = 0.2079)?
The excess molar enthalpy was -0.106 ± 0.00232 kcal/mol.

What about the excess molar enthalpy ([2]; x1 = 0.3016) of the same molecule?
Its excess molar enthalpy is -0.152 ± 0.00335 kcal/mol.

And the excess molar enthalpy ([2]; x1 = 0.3784)?
Its excess molar enthalpy is -0.153 ± 0.00335 kcal/mol.

And the excess molar enthalpy ([2]; x1 = 0.4461)?
The excess molar enthalpy was -0.147 ± 0.00311 kcal/mol.

What about the excess molar enthalpy ([2]; x1 = 0.4987) of the same molecule?
Its excess molar enthalpy is -0.14 ± 0.00311 kcal/mol.

And the excess molar enthalpy ([2]; x1 = 0.6022)?
The excess molar enthalpy was -0.11 ± 0.00239 kcal/mol.

And the excess molar enthalpy ([2]; x1 = 0.6641)?
The excess molar enthalpy was -0.102 ± 0.00222 kcal/mol.

And the excess molar enthalpy ([2]; x1 = 0.7014)?
Its excess molar enthalpy is -0.098 ± 0.00215 kcal/mol.

And the excess molar enthalpy ([2]; x1 = 0.737)?
Its excess molar enthalpy is -0.0976 ± 0.00213 kcal/mol.

What about the excess molar enthalpy ([2]; x1 = 0.8114) of the same molecule?
Its excess molar enthalpy is -0.0854 ± 0.00186 kcal/mol.

And the excess molar enthalpy ([2]; x1 = 0.8611)?
Its excess molar enthalpy is -0.0706 ± 0.00155 kcal/mol.

What about the excess molar enthalpy ([2]; x1 = 0.9151) of the same molecule?
The excess molar enthalpy was -0.0481 ± 0.0011 kcal/mol.

With `C[S+](C)[O-]` [dimethyl sulfoxide] as the molecule, how does the mass density [1] read?
The mass density was 1092.4 ± 1 kg/m3.

And the Normal boiling temperature [1]?
The Normal boiling temperature was 189.04 ± 0.2 °C.

Which mass density [1] does the source give for `ClCCCl` [1,2-dichloroethane] here?
Its mass density is 1238.41 ± 1.2 kg/m3.

And the Normal boiling temperature [1]?
The Normal boiling temperature was 83.80 ± 0.2 °C.

Which excess molar enthalpy ([2]; x1 = 0.0732) does the source give for `ClCCCl` [1,2-dichloroethane] + C[S+](C)[O-] here?
Its excess molar enthalpy is -0.0141 ± 0.000382 kcal/mol.

And the excess molar enthalpy ([2]; x1 = 0.1296)?
Its excess molar enthalpy is -0.0219 ± 0.00055 kcal/mol.

And the excess molar enthalpy ([2]; x1 = 0.1713)?
Its excess molar enthalpy is -0.0257 ± 0.000621 kcal/mol.

What about the excess molar enthalpy ([2]; x1 = 0.2259) of the same molecule?
Its excess molar enthalpy is -0.0301 ± 0.000717 kcal/mol.

And the excess molar enthalpy ([2]; x1 = 0.2783)?
Its excess molar enthalpy is -0.0361 ± 0.000837 kcal/mol.

And the excess molar enthalpy ([2]; x1 = 0.3275)?
The excess molar enthalpy was -0.0458 ± 0.00105 kcal/mol.

What about the excess molar enthalpy ([2]; x1 = 0.3609) of the same molecule?
Its excess molar enthalpy is -0.0548 ± 0.00122 kcal/mol.

And the excess molar enthalpy ([2]; x1 = 0.4054)?
The excess molar enthalpy was -0.0712 ± 0.00158 kcal/mol.

What about the excess molar enthalpy ([2]; x1 = 0.4636) of the same molecule?
Its excess molar enthalpy is -0.0899 ± 0.00196 kcal/mol.

And the excess molar enthalpy ([2]; x1 = 0.5266)?
Its excess molar enthalpy is -0.11 ± 0.00239 kcal/mol.

And the excess molar enthalpy ([2]; x1 = 0.6133)?
The excess molar enthalpy was -0.138 ± 0.00311 kcal/mol.

And the excess molar enthalpy ([2]; x1 = 0.6613)?
The excess molar enthalpy was -0.143 ± 0.00311 kcal/mol.

What about the excess molar enthalpy ([2]; x1 = 0.7158) of the same molecule?
Its excess molar enthalpy is -0.131 ± 0.00287 kcal/mol.

What about the excess molar enthalpy ([2]; x1 = 0.7593) of the same molecule?
Its excess molar enthalpy is -0.127 ± 0.00263 kcal/mol.

What about the excess molar enthalpy ([2]; x1 = 0.8032) of the same molecule?
Its excess molar enthalpy is -0.106 ± 0.00232 kcal/mol.

What about the excess molar enthalpy ([2]; x1 = 0.861) of the same molecule?
The excess molar enthalpy was -0.0677 ± 0.00151 kcal/mol.

And the excess molar enthalpy ([2]; x1 = 0.9269)?
The excess molar enthalpy was -0.0285 ± 0.000669 kcal/mol.

Which results are given for `ClC(Cl)=C(Cl)Cl` [tetrachloroethene]?
mass density [1]: 1606.39 ± 1.6 kg/m3; Normal boiling temperature [1]: 121.00 ± 0.2 °C

For `CC(Cl)(Cl)Cl` [1,1,1-trichloroethane], which mass density [1] is on record?
Its mass density is 1320.97 ± 1.3 kg/m3.

And the Normal boiling temperature [1]?
Its Normal boiling temperature is 74.20 ± 0.2 °C.

For `CC(Cl)(Cl)Cl` [1,1,1-trichloroethane] + C[S+](C)[O-], which excess molar enthalpy ([2]; x1 = 0.0243) is on record?
The excess molar enthalpy was -0.0102 ± 0.000311 kcal/mol.

What about the excess molar enthalpy ([2]; x1 = 0.0579) of the same molecule?
The excess molar enthalpy was -0.023 ± 0.000574 kcal/mol.

What about the excess molar enthalpy ([2]; x1 = 0.109) of the same molecule?
The excess molar enthalpy was -0.0422 ± 0.000956 kcal/mol.

And the excess molar enthalpy ([2]; x1 = 0.1532)?
Its excess molar enthalpy is -0.0563 ± 0.00127 kcal/mol.

And the excess molar enthalpy ([2]; x1 = 0.1973)?
Its excess molar enthalpy is -0.0679 ± 0.00151 kcal/mol.

What about the excess molar enthalpy ([2]; x1 = 0.244) of the same molecule?
Its excess molar enthalpy is -0.0796 ± 0.00174 kcal/mol.

What about the excess molar enthalpy ([2]; x1 = 0.2857) of the same molecule?
The excess molar enthalpy was -0.087 ± 0.00191 kcal/mol.

What about the excess molar enthalpy ([2]; x1 = 0.3462) of the same molecule?
Its excess molar enthalpy is -0.0932 ± 0.00203 kcal/mol.

And the excess molar enthalpy ([2]; x1 = 0.4106)?
The excess molar enthalpy was -0.0986 ± 0.00215 kcal/mol.

And the excess molar enthalpy ([2]; x1 = 0.4797)?
Its excess molar enthalpy is -0.0987 ± 0.00215 kcal/mol.

And the excess molar enthalpy ([2]; x1 = 0.5571)?
Its excess molar enthalpy is -0.0945 ± 0.00208 kcal/mol.

And the excess molar enthalpy ([2]; x1 = 0.6064)?
The excess molar enthalpy was -0.0869 ± 0.00191 kcal/mol.

And the excess molar enthalpy ([2]; x1 = 0.6632)?
Its excess molar enthalpy is -0.0775 ± 0.0017 kcal/mol.

And the excess molar enthalpy ([2]; x1 = 0.7189)?
The excess molar enthalpy was -0.0666 ± 0.00148 kcal/mol.

And the excess molar enthalpy ([2]; x1 = 0.7771)?
Its excess molar enthalpy is -0.0526 ± 0.0012 kcal/mol.

And the excess molar enthalpy ([2]; x1 = 0.8537)?
Its excess molar enthalpy is -0.0323 ± 0.000765 kcal/mol.

What about the excess molar enthalpy ([2]; x1 = 0.9297) of the same molecule?
The excess molar enthalpy was -0.0102 ± 0.000311 kcal/mol.

With `ClC(Cl)C(Cl)Cl` [1,1,2,2-tetrachloroethane] + C[S+](C)[O-] as the molecule, how does the excess molar enthalpy ([2]; x1 = 0.0378) read?
The excess molar enthalpy was -0.0704 ± 0.00155 kcal/mol.

And the excess molar enthalpy ([2]; x1 = 0.0688)?
Its excess molar enthalpy is -0.149 ± 0.00311 kcal/mol.

What about the excess molar enthalpy ([2]; x1 = 0.1005) of the same molecule?
The excess molar enthalpy was -0.229 ± 0.00502 kcal/mol.

And the excess molar enthalpy ([2]; x1 = 0.1295)?
Its excess molar enthalpy is -0.307 ± 0.00669 kcal/mol.

What about the excess molar enthalpy ([2]; x1 = 0.1325) of the same molecule?
The excess molar enthalpy was -0.309 ± 0.00669 kcal/mol.

And the excess molar enthalpy ([2]; x1 = 0.1565)?
The excess molar enthalpy was -0.372 ± 0.00789 kcal/mol.

And the excess molar enthalpy ([2]; x1 = 0.1793)?
Its excess molar enthalpy is -0.423 ± 0.00908 kcal/mol.

And the excess molar enthalpy ([2]; x1 = 0.2167)?
Its excess molar enthalpy is -0.494 ± 0.0105 kcal/mol.

What about the excess molar enthalpy ([2]; x1 = 0.2914) of the same molecule?
Its excess molar enthalpy is -0.652 ± 0.0139 kcal/mol.

And the excess molar enthalpy ([2]; x1 = 0.3555)?
The excess molar enthalpy was -0.774 ± 0.0165 kcal/mol.

And the excess molar enthalpy ([2]; x1 = 0.4111)?
Its excess molar enthalpy is -0.839 ± 0.0179 kcal/mol.

And the excess molar enthalpy ([2]; x1 = 0.4577)?
Its excess molar enthalpy is -0.843 ± 0.0179 kcal/mol.

What about the excess molar enthalpy ([2]; x1 = 0.4979) of the same molecule?
The excess molar enthalpy was -0.84 ± 0.0179 kcal/mol.

What about the excess molar enthalpy ([2]; x1 = 0.5577) of the same molecule?
The excess molar enthalpy was -0.816 ± 0.0174 kcal/mol.

What about the excess molar enthalpy ([2]; x1 = 0.6277) of the same molecule?
The excess molar enthalpy was -0.755 ± 0.016 kcal/mol.

What about the excess molar enthalpy ([2]; x1 = 0.6654) of the same molecule?
Its excess molar enthalpy is -0.712 ± 0.0151 kcal/mol.

And the excess molar enthalpy ([2]; x1 = 0.7123)?
The excess molar enthalpy was -0.664 ± 0.0141 kcal/mol.

And the excess molar enthalpy ([2]; x1 = 0.7577)?
Its excess molar enthalpy is -0.609 ± 0.0129 kcal/mol.

And the excess molar enthalpy ([2]; x1 = 0.8121)?
The excess molar enthalpy was -0.514 ± 0.011 kcal/mol.

And the excess molar enthalpy ([2]; x1 = 0.8537)?
Its excess molar enthalpy is -0.435 ± 0.00932 kcal/mol.

What about the excess molar enthalpy ([2]; x1 = 0.9099) of the same molecule?
The excess molar enthalpy was -0.252 ± 0.0055 kcal/mol.

Source: the NIST ThermoML archive (doi:10.1016/j.tca.2007.08.008)
